pIC50: −log10 of the molar value. Like-named read-outs stand apart in the source and are kept apart here. Where no end group is shown, it is not given here.
What was measured:
Assay in all cases: MHC II competition binding assay
[1] = target: T1, DRB1*0101 (Homo sapiens, UniProt P01903+P01911, A100R/D57E/F55L/F60I/F76Y/I96L/L162R/M171V/P40L/Q125E/R42F/V115G/Y59C)
T1 construct: purchased Benaroya Research Institute (Seattle, Wash.)
Method: (§1) MHC Binding Assays. MHC II competition binding assays were performed using a 384-well high throughput assay as previously described (Salvat, et al. (2014) supra). Binding assays were performed for the eight alleles: DRB1*0101, 0301, 0401, 0701, 0801, 1101, 1301, and 1501. Briefly, 100 nM biotinylated control peptides composed of known peptide antigens for each MHC II allele were incubated in polypropylene 384-well plates with 50 nM purified recombinant MHC II protein and serial dilutions of LST or variant peptide fragments (100 μM to 10 nM). Peptide-MHC II complexes were captured from equilibrated solutions using the conformation specific anti-HLA-DR antibody L243 coated on high binding ELISA plates. Bound control peptide was quantified using the DELFIA streptavidin-Europium conjugate and time resolved fluorescence (SpectraMax Gemini Fluorescence Microplate Reader).

[2] = target: DRB1*0701 (Homo sapiens, UniProt P01903+P01911, A100R/A102G/A103Q/D57E/D86V/E43K/F76Y/K127E/L162R/M171V/P40G/Q125H/Q99D/R33Q/R42Y/R54Q/S133A/S66F/T210M/V115G/Y107V/Y59L/Y89S)
Method: as §1

[3] = target: DRB1*1301 (Homo sapiens, UniProt P01903+P01911, A100E/A169T/K41T/L162R/M171V/P40S/Q125H/Q178H/Q39Y/Q99D/R42S/S66N/T262R/W38E/Y61H)
Method: as §1

[4] = target: T2, DRB1*1501 (Homo sapiens, UniProt P01903+P01911)
T2 construct: purchased Benaroya Research Institute (Seattle, Wash.)
Method: as §1, with “MHC II competition binding assays were performed using a 384-well high throughput assay as previously described (Salvat, et al. (2014) supra). Binding assays were performed for the eight alleles: DRB1*0101, 0301, 0401, 0701, 0801, 1101, 1301, and 1501.” left out

[5] = target: T3, DRB1*0301 (Homo sapiens, UniProt P01903+P01911, A100K/A102G/A103R/A169T/F55Y/I96L/K41T/L162R/M171V/P40S/Q125H/Q178H/Q39Y/R42S/S66N/T106N/T262R/W38E/Y61H)
T3 construct: purchased Benaroya Research Institute (Seattle, Wash.)
Method: as §1

[6] = target: T4, DRB1*0401 (Homo sapiens, UniProt P01903+P01911, A100K/A169T/F76Y/I96L/K127E/L162R/M171V/N62H/P40V/Q125Y/R42H/S133A/S149N/S66Y/V115G/V209L/W38E)
T4 construct: purchased Benaroya Research Institute (Seattle, Wash.)
Method: as §1

[7] = target: DRB1*0801 (Homo sapiens, UniProt P01903+P01911, A100R/A103L/A169T/D86S/F76Y/H45Y/I96F/K41T/L162R/M171V/P40S/Q125H/Q178H/Q39Y/Q99D/R218S/R42G/S66Y/V115G/W38E)
Method: as §1

[8] = target: DRB1*1101 (Homo sapiens, UniProt P01903+P01911, A100R/A169T/A87E/I96F/K41T/L162R/M171V/P40S/Q125H/Q178H/Q39Y/Q99D/R42S/S66Y/T262R/V115G/W38E)
Method: as §1

[9] = synthetic peptide competing with biotinylated control peptide, read-out: IC50 0801
[10] = synthetic peptide competing with biotinylated control peptide, read-out: IC50 0401

## CSCC[C@H](NC(=O)[C@H](Cc1ccc(O)cc1)NC(=O)[C@H](Cc1c[nH]c2ccccc12)NC(=O)[C@H](CCC(N)=O)NC(=O)[C@H](CCCNC(=N)N)NC(=O)[C@H](Cc1c[nH]cn1)NC(=O)[C@@H](NC(=O)CN)C(C)C)C(=O)N[C@@H](Cc1c[nH]cn1)C(=O)N[C@@H](CC(C)C)C(=O)N[C@@H](CO)C(=O)N[C@@H](CCCCN)C(=O)N[C@@H](Cc1ccc(O)cc1)C(=O)N[C@@H](CC(N)=O)C(=O)N[C@H](C(=O)N[C@@H](CCCCN)C(=O)N[C@H](C(=O)NCC(=O)N[C@@H](CC(=O)O)C(=O)O)C(C)C)C(C)C [Design C3WT]
[1]
  binder class DRB1*0101: strong (strong binder if an IC50 value of less than 0.1 μM was observed)
[2]
  binder class DRB1*0701: strong (strong binder if an IC50 value of less than 0.1 μM was observed)
[3]
  binder class DRB1*1301: weakly
[4]
  binder class DRB1*1501: weak (weak if an IC50 value was in the 1-10 μM range)

## Asn12Gly: full-length lysostaphin single point mutant
[1]
  binder class DRB1*0101: strong (strong binder if an IC50 value of less than 0.1 μM was observed)

## Asn13His: full-length lysostaphin single point mutant
[3]
  binder class DRB1*1301: weak (weak if an IC50 value was in the 1-10 μM range)

## DHVEAGQQIGWSGSTGY [Peptide 939599]
[1]; DRB1*0101, read-out: IC50
  pIC50: < 3.60
[5]; DRB1*0301, read-out: IC50
  pIC50: < 3.60
[6]; DRB1*0401, read-out: IC50
  pIC50: < 3.60
[7]; DRB1*0801, read-out: IC50
  pIC50: < 3.60
[8]; DRB1*1101, read-out: IC50
  pIC50: < 3.60
[3]; DRB1*1301, read-out: IC50
  pIC50: < 3.60
[4]; DRB1*1501, read-out: IC50
  pIC50: < 3.60

## DHVKAGQIIGWSGSTGY [Peptide Y93H]
[5]
  pIC50: < 3.60
[6]
  pIC50: < 3.60
[7]
  pIC50: < 3.60
[8]
  pIC50: < 3.60
[3]
  pIC50: < 3.60
[4]
  pIC50: > 8.00

## DHVKAGQQIGWSGSTGY [Peptide 93_99]
[1]; DRB1*0101, read-out: IC50
  pIC50: > 8.00
[5]; DRB1*0301, read-out: IC50
  pIC50: < 3.60
[6]; DRB1*0401, read-out: IC50
  pIC50: > 8.00
[7]; DRB1*0801, read-out: IC50
  pIC50: < 3.60
[8]; DRB1*1101, read-out: IC50
  pIC50: < 3.60
[3]; DRB1*1301, read-out: IC50
  pIC50: < 3.60
[4]; DRB1*1501, read-out: IC50
  pIC50: > 8.00

## DYVEAGQIIGWSGSTGY [Peptide K95E]
[1]
  pIC50: > 8.00
[6]
  pIC50: > 8.00
[4]
  pIC50: > 8.00

## DYVEAGQQIGWSGSTGY [Peptide 95-99]
[1]; DRB1*0101, read-out: IC50
  pIC50: > 8.00
[5]; DRB1*0301, read-out: IC50
  pIC50: < 3.60
[2]; DRB1*0701, read-out: IC50
  pIC50: 3.98
[7]; DRB1*0801, read-out: IC50
  pIC50: < 3.60
[3]; DRB1*1301, read-out: IC50
  pIC50: < 3.60
[4]; DRB1*1501, read-out: IC50
  pIC50: > 8.00

## DYVKAGQQIGWSGSTGY [Peptide I99Q]
[5]
  pIC50: < 3.60
[7]
  pIC50: < 3.60
[3]
  pIC50: < 3.60

## GVDFFMNEGTPVHAISSGKIV [Design 41_46]
[1]
  pIC50: > 8.00
[5]
  pIC50: < 3.60
[6]
  pIC50: > 8.00
[7]
  pIC50: < 3.60
[8]
  pIC50: > 8.00
[3]
  pIC50: < 3.60
[4]
  pIC50: > 8.00

## GVDFFMNEGTPVKAISSGKIV [Design 141E]
[5]; synthetic peptide competing with biotinylated control peptide, read-out: IC50 0301
  pIC50: < 3.60
[7]; [9]
  pIC50: < 3.60

## GVDFFMNIGTPVKAISSGKIV [Design C2WT]
[6]; [10]
  pIC50: 4.86
[7]; [9]
  pIC50: < 3.60
[3]; synthetic peptide competing with biotinylated control peptide, read-out: IC50 1301
  pIC50: 3.98

## GVHRQWYMHMSKYNVKVGD [Design L83M]
[6]; [10]
  pIC50: < 3.60

## HLHFQRMVGDFGNPTAQ [Peptide 212224]
[1]
  pIC50: 6.74
[5]
  pIC50: 3.93
[6]
  pIC50: 5.26
[2]
  pIC50: < 3.60
[7]
  pIC50: < 3.60
[8]
  pIC50: 4.87
[3]
  pIC50: < 3.60
[4]
  pIC50: 4.62

Source: patent publication US11091749B2, “Deimmunized lysostaphin and methods of use” (TRUSTEES OF DARTMOUTH COLLEGE, priority 2014, dated 2021)
